Data on 7 compounds can be found in patent US9453026B2, “ACC inhibitors and uses thereof” (Gilead Apollo, Inc., priority 2011, dated 2016).

One may read the MIC as the lowest concentration that inhibits growth of the organism.

The structures appear in SMILES notation. ≈ marks a conversion by molar mass, not a printed value. Where “and” joins values, the source holds several entries; their conditions need not be identical. Equal values may be shown once. Read-outs that look alike come from different tables or passages of the source. A value given as a limit tells only on which side of the number the result lay.

The target of one assay is ACC1 (Homo sapiens, UniProt Q13085). The experiment in a line: In vitro ACC1 inhibition assay (ADP-Glo). It counts as biochemical. The conditions noted are these: read-out: ACC1. Put shortly:
(§1)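 Enzyme (human ACC1 or ACC2) and compound, serially diluted 1:3 over 11 points from a 600 uM DMSO stock, were preincubated 15 min before substrate addition.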
Background: ADP-Glo turns the ADP formed in a reaction into a luminescent signal.

The next assay has as its system target protein (ACC). In words: Thermal Shift Assay (TSA). Format: binding. The text has this: 103, 43, 15835-15840, the entirety of which is incorporated herein by reference.
A further assay concerns the target ACC2 (Homo sapiens, UniProt O00763). The experiment in a line: In vitro ACC2 inhibition assay (ADP-Glo). It counts as biochemical. Conditions: read-out: ACC2. Put shortly: as §1
A further assay concerns C. albicans ATCC 90028. In words: Anti-Fungal Activity Assay (broth microtiter MIC). It counts as cell-based. Conditions: 3 replicates, test compounds read at 48 h. Here is the method: (§2) Compounds of the present invention were evaluated in an Anti-Fungal Activity Assay. An exemplary procedure for the assay, which measures the susceptibility of various Candida species to anti-fungal compounds, follows. Compounds to be tested (including fluconazole and amphotericin B) were dissolved in DMSO to obtain a solution having a concentration of 1 mg/mL. […] All species were grown from frozen stock by directly plating on to freshly prepared Sabouraud Dextrose agar (BD, Difco) and incubated overnight in ambient air at 35° C. for 24 h. A direct suspension was prepared in RPMI 1640+MOPS (Lonza, Biowhittaker) by taking individual colonies from the overnight cultures using sterile swabs soaked in sterile saline. The concentration of the suspension was determined using pre-determined standard curves. […] The original CLSI guidelines focused on reading Candida MICs after 48 h of incubation. As reading after only 24 h offers a clear advantage of patient care, QC limits are being established for all drugs at 24 h. That being said there are no known interpretive breakpoints for amphotericin B at 24 h and the current fluconazole interpretive breakpoints are based on a 48 h reading. The MIC breakpoints for the Pharmaron test compounds were recorded at 48 h, and for the soraphen the 24 h time-point was added. All MIC determinations were achieved by visually comparing the growth found in the antibiotic challenged wells to that of the growth control.

The subject of assay [1] is C. parapsilosis ATCC 22019. In words: Anti-Fungal Activity Assay (broth microtiter MIC). Format: cell-based. The conditions noted are these: 3 replicates, test compounds read at 48 h. Here is the method:
as §2

A further assay relates to C. krusei ATCC 6258. The experiment in a line: Anti-Fungal Activity Assay (broth microtiter MIC). It counts as cell-based. Conditions: 3 replicates, test compounds read at 48 h. Here is the method: as §2
For a further assay, the system named is Candida species. In words: Anti-Fungal Activity Assay, summary over Candida species. Format: cell-based. The conditions noted are these: summary of Table 3. The protocol: as §2
In the next assay the test system is HepG2 cells. The experiment in a line: [14C] Acetate Incorporation HepG2 Cellular Assay. Conditions: Homo sapiens; HepG2 cells, FIG. 4; read-out: IC50, incorporation of isotopically labeled acetate into fatty acids. It counts as cell-based. Here is the method:
Compounds of the present invention were evaluated in a [^14C] Acetate Incorporation Assay. An exemplary procedure for the assay, which measures the incorporation of isotopically labeled acetate into fatty acids, follows. HepG2 cells were maintained in T-75 flasks containing DMEM supplemented with 2 mM 1-glutamine, penicillin G (100 units/ml), streptomycin 100 μg/ml with 10% FBS and incubated in a humidified incubator with 5% CO2 at 37° C. Cells were fed every 2-3 days. On Day 1. cells were seeded in 24 well plates at a density of 1.2×10^5 cells/ml/well with the growth medium. On Day 3 the medium was replaced with fresh medium containing 10% FBS. On Day 4 the medium was replaced with 0.5 ml of fresh medium containing test compound (in DMSO; final [DMSO] is 0.5%) and the cells were incubated at 37° C. for 1 hour. To one copy of plate, 4 ul of [2-^14C]acetate (56 mCi/mmol; 1 mCi/ml; PerkinElmer) was added and the cells were incubated at 37° C., 5% CO2 for 5 hrs. To a second copy of plate, 4 ul of cold acetate were added and the cells were incubated at 37° C., 5% CO2 for 5 hrs. This plate was used for protein concentration measurement. Medium was removed and placed in a 15 ml centrifuge tube (BD, Falcon/352096). Cells were rinsed with 1 ml PBS, then aspirated, and the rinse and aspiration steps were repeated. 0.5 ml of 0.1N NaOH were added to each well and let sit at RT to dissolve cell monolayer. The remaining cell suspension was pooled with medium. For the protein determination plate, an aliquot was removed for protein determination (25 ul). […] 5 ml petroleum ether was added per tube, shaken vigorously, centrifuged at 1000 rpm for 5 min, and 500 uL of the petroleum ether layer was transferred to tubes for Microbeta reading, then 2 ml Aquasol-2 were added to each tube, the tubes were shaken and counted with a Microbeta Liquid Scintillation Counter (Perkin Elmer).
The remaining petroleum ether layer was discarded and the aqueous phase reserved for fatty acid extractions. […] 2 ml of Aquasol-2 was added to each vial, and the vials were shaken and counted on a scintillation counter.

[2] abbreviates: Candida albicans, ATCC90028, 48 h, read-out: MIC.
[3] abbreviates: Lodderomyces parapsilosis, ATCC22019, 48 h, read-out: MIC.
Setting [4] is: Pichia kudriavzevii, ATCC6258, 48 h, read-out: MIC.

Sequence of ACC2 (O00763 whole entry, species assumed): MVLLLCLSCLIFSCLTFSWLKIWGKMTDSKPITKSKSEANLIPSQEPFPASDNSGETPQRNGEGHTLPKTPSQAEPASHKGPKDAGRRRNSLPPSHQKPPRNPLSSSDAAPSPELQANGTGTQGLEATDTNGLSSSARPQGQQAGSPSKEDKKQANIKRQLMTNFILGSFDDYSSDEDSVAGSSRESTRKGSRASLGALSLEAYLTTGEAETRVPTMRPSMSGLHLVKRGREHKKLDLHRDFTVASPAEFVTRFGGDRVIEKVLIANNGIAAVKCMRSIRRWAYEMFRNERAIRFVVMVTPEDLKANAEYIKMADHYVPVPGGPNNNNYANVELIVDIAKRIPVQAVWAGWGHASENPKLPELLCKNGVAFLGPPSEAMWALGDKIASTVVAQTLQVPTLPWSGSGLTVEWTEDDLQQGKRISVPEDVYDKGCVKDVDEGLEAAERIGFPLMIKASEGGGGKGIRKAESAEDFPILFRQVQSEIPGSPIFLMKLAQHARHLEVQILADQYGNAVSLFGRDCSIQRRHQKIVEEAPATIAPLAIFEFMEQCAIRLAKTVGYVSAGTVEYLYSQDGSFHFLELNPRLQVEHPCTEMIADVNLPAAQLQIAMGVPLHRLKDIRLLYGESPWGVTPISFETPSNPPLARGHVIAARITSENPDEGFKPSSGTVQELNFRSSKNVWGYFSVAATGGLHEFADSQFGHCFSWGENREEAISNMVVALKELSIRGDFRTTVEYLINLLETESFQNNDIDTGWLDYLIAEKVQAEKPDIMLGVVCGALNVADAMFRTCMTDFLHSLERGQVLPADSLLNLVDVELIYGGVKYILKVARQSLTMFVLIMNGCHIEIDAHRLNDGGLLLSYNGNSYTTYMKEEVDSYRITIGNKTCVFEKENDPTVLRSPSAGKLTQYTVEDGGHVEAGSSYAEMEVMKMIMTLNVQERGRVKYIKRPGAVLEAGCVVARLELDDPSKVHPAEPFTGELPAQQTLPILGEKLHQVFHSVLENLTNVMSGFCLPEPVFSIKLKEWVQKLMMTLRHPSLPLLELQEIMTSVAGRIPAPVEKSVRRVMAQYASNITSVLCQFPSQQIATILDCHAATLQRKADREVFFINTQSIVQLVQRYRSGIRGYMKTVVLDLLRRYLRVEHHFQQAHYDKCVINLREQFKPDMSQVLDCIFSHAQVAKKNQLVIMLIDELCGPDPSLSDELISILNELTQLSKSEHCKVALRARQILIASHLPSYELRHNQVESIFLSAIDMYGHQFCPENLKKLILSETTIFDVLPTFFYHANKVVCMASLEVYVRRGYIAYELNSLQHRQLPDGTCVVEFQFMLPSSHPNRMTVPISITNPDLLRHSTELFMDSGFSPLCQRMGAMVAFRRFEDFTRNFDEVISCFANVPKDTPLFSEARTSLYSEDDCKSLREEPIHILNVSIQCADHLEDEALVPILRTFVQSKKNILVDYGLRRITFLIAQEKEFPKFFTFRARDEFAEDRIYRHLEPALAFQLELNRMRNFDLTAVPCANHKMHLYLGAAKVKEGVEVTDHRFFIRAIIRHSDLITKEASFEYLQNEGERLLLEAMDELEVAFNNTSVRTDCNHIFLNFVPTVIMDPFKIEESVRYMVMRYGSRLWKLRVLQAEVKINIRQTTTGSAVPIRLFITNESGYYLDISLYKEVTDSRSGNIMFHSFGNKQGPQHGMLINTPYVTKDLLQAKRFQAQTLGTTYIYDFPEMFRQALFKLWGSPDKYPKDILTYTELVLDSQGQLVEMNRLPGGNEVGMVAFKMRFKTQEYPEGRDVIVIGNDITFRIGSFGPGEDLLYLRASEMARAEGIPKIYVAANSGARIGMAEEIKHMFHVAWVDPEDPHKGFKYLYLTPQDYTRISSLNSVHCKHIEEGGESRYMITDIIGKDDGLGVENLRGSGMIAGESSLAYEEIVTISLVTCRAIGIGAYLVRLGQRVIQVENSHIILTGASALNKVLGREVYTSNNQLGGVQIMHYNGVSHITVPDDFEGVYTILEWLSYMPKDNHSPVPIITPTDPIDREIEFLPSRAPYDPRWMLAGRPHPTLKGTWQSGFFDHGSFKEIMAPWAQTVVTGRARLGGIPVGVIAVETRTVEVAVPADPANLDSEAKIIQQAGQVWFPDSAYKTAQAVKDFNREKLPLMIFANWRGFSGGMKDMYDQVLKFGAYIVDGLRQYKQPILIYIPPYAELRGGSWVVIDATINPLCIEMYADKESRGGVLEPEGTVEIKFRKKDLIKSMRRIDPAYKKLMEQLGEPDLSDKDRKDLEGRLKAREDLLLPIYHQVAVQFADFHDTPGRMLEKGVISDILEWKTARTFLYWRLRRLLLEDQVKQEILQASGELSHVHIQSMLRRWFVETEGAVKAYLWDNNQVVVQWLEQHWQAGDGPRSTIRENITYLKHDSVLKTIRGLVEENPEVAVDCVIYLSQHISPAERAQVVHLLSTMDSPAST

`CCOC(=O)c1sc2c(c1C)c(=O)n(CC(=O)O)c(=O)n2CC(OC(C)C)c1ccccc1` (stereo in doubt) [I-97, (R)-2-(6-(ethoxycarbonyl)-1-(2-isopropoxy-2-phenylethyl)-5-methyl-2,4-dioxo-1,2-dihydrothieno[2,3-d]pyrimidin-3(4H)-yl)acetic acid]: the IC50 on ACC1 was below 100 nM; on ACC2, below 1000 nM. Moreover, the “thermal melting point change” value in the assay with target protein (ACC) (FIG. 2) was “more than 14 ′C”.

Turning to `COc1ccccc1[C@H](Cn1c(=O)n(C(C)(C)C(=O)O)c(=O)c2c(C)c(-c3ncco3)sc21)OC(C)C` [I-159, 2-[1-[(2R)-2-(2-methoxyphenyl)-2-(propan-2-yloxy)ethyl]-5-methyl-6-(1,3-oxazol-2-yl)-2,4-dioxo-1H,2H,3H,4H-thieno[2,3-d]pyrimidin-3-yl]-2-methylpropanoic acid], the minimum inhibitory concentration (MIC) with C. albicans ATCC 90028 is 8 µg/mL (≈ 15.2 µM); with C. albicans ATCC 90028 (setting [2]) it was 8 µg/mL (≈ 15.2 µM); in assay [1], above 64 µg/mL; in assay [1] (setting [3]), above 64 µg/mL; with C. krusei ATCC 6258 it was 16 µg/mL and 32 µg/mL; in the assay with C. krusei ATCC 6258 (setting [4]), 16 µg/mL (≈ 30.3 µM). In addition, in the assay with Candida species, the “anti-fungal activity MICs” value is “low ug/mL range”. For the same compound, the IC50 at ACC2 is below 1000 nM.

Regarding `Cc1c(-c2ncco2)sc2c1c(=O)n(C(C)(C)C(=O)O)c(=O)n2C[C@H](O[C@H]1CC[C@H](O)CC1)c1ccccc1` [I-165, 2-[1-[(2R)-2-[(4-hydroxycyclohexyl)oxy]-2-phenylethyl]-5-methyl-6-(1,3-oxazol-2-yl)-2,4-dioxo-1H,2H,3H,4H-thieno[2,3-d]pyrimidin-3-yl]-2-methylpropanoic acid], the MIC (against C. albicans ATCC 90028; in the assay on C. albicans ATCC 90028 (setting [2]); in assay [1]; in assay [1] (setting [3]); with C. krusei ATCC 6258; in the assay on C. krusei ATCC 6258 (setting [4])) was above 64 µg/mL each time. Moreover, the IC50 on ACC1 and on ACC2 was below 100 nM throughout.

Take `COc1ccccc1[C@H](Cn1c(=O)n(C(C)(C)C(N)=O)c(=O)c2c(C)c(-c3ncco3)sc21)OC(C)C` [I-174, 2-[1-[(2R)-2-(2-methoxyphenyl)-2-(propan-2-yloxy)ethyl]-5-methyl-6-(1,3-oxazol-2-yl)-2,4-dioxo-1H,2H,3H,4H-thieno[2,3-d]pyrimidin-3-yl]-2-methylpropanamide]: the minimal inhibitory concentration (MIC) against C. albicans ATCC 90028 is 2 µg/mL (≈ 3.8 µM); in the assay on C. albicans ATCC 90028 (setting [2]) it was 2 µg/mL (≈ 3.8 µM); in assay [1], 8 µg/mL (≈ 15.2 µM); in assay [1] (setting [3]), 8 µg/mL (≈ 15.2 µM); against C. krusei ATCC 6258 it was 2 µg/mL (≈ 3.8 µM); in the assay with C. krusei ATCC 6258 (setting [4]) it was 2 µg/mL (≈ 3.8 µM). Further, the IC50 at ACC1, in the assay with HepG2 cells and at ACC2 was below 100 nM in each case. The “anti-fungal activity MICs” value with Candida species was “low ug/mL range”. Besides, in the assay on target protein (ACC) (FIG. 3), the “thermal melting point change compared with Soraphen A” value is given as “equivalent to that of Soraphen A”.

As to `COc1ccccc1[C@H](Cn1c(=O)n(C(C)(C)C(=O)N2CCOCC2)c(=O)c2c(C)c(-c3ncco3)sc21)OC(C)C` [I-235, 1-[(2R)-2-(2-methoxyphenyl)-2-(propan-2-yloxy)ethyl]-5-methyl-3-[2-methyl-1-(morpholin-4-yl)-1-oxopropan-2-yl]-6-(1,3-oxazol-2-yl)-1H,2H,3H,4H-thieno[2,3-d]pyrimidine-2,4-dione], the MIC (against C. albicans ATCC 90028; in the assay with C. albicans ATCC 90028 (setting [2]); in assay [1]; in assay [1] (setting [3]); in the assay with C. krusei ATCC 6258; in the assay on C. krusei ATCC 6258 (setting [4])) was 8 µg/mL (≈ 13.4 µM) in each case. In addition, the IC50 at ACC1 and on ACC2 was below 100 nM throughout. Moreover, in the assay on Candida species, the “anti-fungal activity MICs” value is recorded as “low ug/mL range”.

For the compound `CCNC(=O)C(C)(C)n1c(=O)c2c(C)c(-c3ncco3)sc2n(C[C@H](OC(C)C)c2ccccc2OC)c1=O` [I-236, N-ethyl-2-[1-[(2R)-2-(2-methoxyphenyl)-2-(propan-2-yloxy)ethyl]-5-methyl-6-(1,3-oxazol-2-yl)-2,4-dioxo-1H,2H,3H,4H-thieno[2,3-d]pyrimidin-3-yl]-2-methylpropanamide], the MIC is 8 µg/mL (≈ 14.4 µM) in the assay on C. albicans ATCC 90028; 8 µg/mL (≈ 14.4 µM) in the assay on C. albicans ATCC 90028 (setting [2]); 2 µg/mL (≈ 3.61 µM) in assay [1]; 2 µg/mL (≈ 3.61 µM) in assay [1] (setting [3]); 4 µg/mL (≈ 7.21 µM) against C. krusei ATCC 6258; 8 µg/mL (≈ 14.4 µM) in the assay on C. krusei ATCC 6258 (setting [4]). Further, the IC50 on ACC1 and on ACC2 was below 100 nM each time. For the same compound, the “anti-fungal activity MICs” value with Candida species is given as “low ug/mL range”.

In the case of `COc1ccccc1[C@H](Cn1c(=O)n(C(C)(C)C(N)=O)c(=O)c2c(C)c(-c3ncco3)sc21)OC1CCOCC1` [I-246, 2-[1-[(2R)-2-(2-methoxyphenyl)-2-(oxan-4-yloxy)ethyl]-5-methyl-6-(1,3-oxazol-2-yl)-2,4-dioxo-1H,2H,3H,4H-thieno[2,3-d]pyrimidin-3-yl]-2-methylpropanamide], the MIC stood at 4 µg/mL (≈ 7.03 µM) against C. albicans ATCC 90028; 4 µg/mL (≈ 7.03 µM) with C. albicans ATCC 90028 (setting [2]); 4 µg/mL (≈ 7.03 µM) in assay [1]; 4 µg/mL (≈ 7.03 µM) in assay [1] (setting [3]); 16 µg/mL (≈ 28.1 µM) against C. krusei ATCC 6258; 16 µg/mL (≈ 28.1 µM) in the assay on C. krusei ATCC 6258 (setting [4]). In the assay on Candida species, the “anti-fungal activity MICs” value is “low ug/mL range”.
